Data from US11382956B2, “Amylin analogues” (Zealand Pharma A/S, priority 2016, dated 2022).
Numbered stars: 1 amine (or outer) side, 2 acyl side, 3 side chain; on linkers, the order of the positions; unused ones are H or OH. Bridge positions count the residues as written; N and C are the ends. Square brackets hold non-standard residues; d marks the D form. Peptide text beside a SMILES is read from it. * marks the point of attachment. C20 diacid = O=C(O)CCCCCCCCCCCCCCCCCCC(=O)*; γGlu = O=C(O)[C@H](CCC(=O)[*:2])N[*:1]; Hyp = O=C(O)[C@@H]1C[C@@H](O)CN1; NMeI = CC[C@H](C)[C@H](NC)C(=O)O; Aad = N[C@@H](CCCC(=O)O)C(=O)O; Orn = NCCC[C@H](N)C(=O)O; Sar = CNCC(=O)O

What was measured:
[1] = Assessment of physical stability: fibril formation by Thioflavin T fluorescence; type: physicochemical; design: key: FND = fibrillation not detected; FD = fibrillation detected; conditions: 1 mg/mL peptide; for Fibrillation (in buffer) pH4 acetate: 50 mM acetate buffer pH 4.0, 96 hours at 40° C.; for Fibrillation (in buffer) pH7 histidine: 50 mM histidine buffer pH 7.0, 96 hours at 40° C.; for Fibrillation (in buffer) pH7 phosphate: 50 mM phosphate buffer pH 7.0, 96 hours at 40° C.
In short: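 Test peptide at 1 mg/mL with 40 μM ThT in 50 mM phosphate pH 7.0, 50 mM histidine pH 7.0, or 50 mM acetate pH 4.0, in triplicate. Fluorescence read every 10 min after 300 s agitation for 96 hours at 40° C; significant intensity rise scored as fibrillation detected (FD).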

[2] = Assessment of chemical stability in 40 mM buffers at 40° C. (RP-HPLC); type: physicochemical; conditions: 1 mg/mL; for % degradation after 72 h at 40° C. pH4 acetate: acetate buffer pH 4, 72 h; for % degradation after 72 h at 40° C. pH6 phosphate: phosphate buffer pH 6, 72 h; for % degradation after 14 days at 40° C. pH6 phosphate: phosphate buffer pH 6, 14 days; for % degradation after 72 h at 40° C. pH7 phosphate: phosphate buffer pH 7, 72 h; for % degradation after 14 days at 40° C. pH7 phosphate: phosphate buffer pH 7, 14 days
In short: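 Peptides at 1 mg/mL in 40 mM acetate pH 4 or phosphate pH 6 and 7 were held at 40° C for 3 and 14 days. Main-peak area-% by C8 RP-HPLC, UV 220 nm; % degradation = change in main-peak area-% versus t=0.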

[3] = Pharmacokinetic (PK) profiling in rats; conditions: male, Sprague Dawley, plasma; rat, single sc bolus 30 nmol/kg; read-out: in vivo half life t1/2 (plasma terminal elimination half-life) (converted)
Description: Sprague Dawley male rats were given a single subcutaneous (sc) bolus of each peptide to be tested, as specified below.
30 nmol/kg doses of compound were administered. Blood samples were drawn from the tail vein prior to dosing and at 24 and 96 hours after dosing. The rats were euthanized immediately after the last blood sampling by concussion and cervical dislocation.
The dosing vehicle used for each test peptide was a mannitol-containing histidine buffer (pH 7.0). Plasma samples were analyzed after precipitation with ethanol by liquid chromatography mass spectrometry (LC-MS/MS). Mean plasma concentrations were used for calculation of the pharmacokinetic parameters.
Plasma terminal elimination half-life (t1/2) was determined as In(2)/λz, where λz is the magnitude of the slope of the log linear regression of the log concentration versus time profile during the terminal phase.

[4] = target: T1, recombinant human amylin 3 receptor (hAMYR3) (Homo sapiens, UniProt O60896+P30988); test: hAMYR3 cAMP assay (AlphaScreen) in 1321N1 cells; type: cell-based; conditions: cAMP formation, 45 min stimulation
T1 construct: host or cells: human astrocytoma cell line 1321N1
T1 sequence (P30988 25-474): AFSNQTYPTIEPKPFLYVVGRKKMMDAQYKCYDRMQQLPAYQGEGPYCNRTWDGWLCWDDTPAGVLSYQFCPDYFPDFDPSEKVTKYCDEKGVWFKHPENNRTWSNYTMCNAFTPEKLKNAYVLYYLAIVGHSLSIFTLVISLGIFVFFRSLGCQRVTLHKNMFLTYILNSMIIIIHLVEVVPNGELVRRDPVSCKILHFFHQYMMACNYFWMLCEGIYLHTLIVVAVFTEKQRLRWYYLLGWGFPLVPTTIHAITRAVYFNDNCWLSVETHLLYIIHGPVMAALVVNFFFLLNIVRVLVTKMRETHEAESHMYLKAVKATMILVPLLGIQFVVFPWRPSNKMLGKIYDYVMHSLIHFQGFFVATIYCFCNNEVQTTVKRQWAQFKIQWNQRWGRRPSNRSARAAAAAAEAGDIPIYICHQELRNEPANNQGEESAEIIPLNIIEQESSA
T1 sequence (O60896 24-148 partner): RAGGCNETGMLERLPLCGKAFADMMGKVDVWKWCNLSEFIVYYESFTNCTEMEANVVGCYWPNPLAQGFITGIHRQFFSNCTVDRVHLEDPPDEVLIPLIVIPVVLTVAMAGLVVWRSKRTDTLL
In short: (§1)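 1321N1 astrocytoma cells expressing recombinant human calcitonin receptor alone or with RAMP3 (AMY3) stimulated 45 min at room temperature with peptide in IBMX-containing buffer. cAMP quantified by AlphaScreen after 1 h bead incubation; EC50 fitted from at least 7 concentrations.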

[5] = target: T2, recombinant human calcitonin receptor (hCT-R) (Homo sapiens, UniProt P30988); test: hCT-R cAMP assay (AlphaScreen) in 1321N1 cells; type: cell-based; conditions: cAMP formation, 45 min stimulation
T2 construct: host or cells: human astrocytoma cell line 1321N1
T2 sequence (P30988 25-474): T1 sequence (P30988 25-474)
In short: as §1

[6] = Effect on acute food intake and body weight in normal Sprague Dawley rats; type: in vivo, Sprague Dawley (SD) rats; conditions: Dose: 30 nmol/kg sc, vehicle-corrected
[7] = cited from earlier work
[8] = WO99/34764; cited from earlier work

Compound | Fibrillation (in buffer) pH4 acetate [1] | Fibrillation (in buffer) pH7 histidine [1] | Fibrillation (in buffer) pH7 phosphate [1] | % degradation after 72 h at 40° C. pH4 acetate [2] [%] | % degradation after 72 h at 40° C. pH6 phosphate [2] [%] | % degradation after 14 days at 40° C. pH6 phosphate [2] [%] | % degradation after 72 h at 40° C. pH7 phosphate [2] [%] | % degradation after 14 days at 40° C. pH7 phosphate [2] [%] | half-life [3] [h] | EC50 [4] [nM] | EC50 [5] [nM] | Body weight reduction in % at 48 h [6] [%] | Food intake reduction in % at 48 h [6] [%] | effect on body weight in human trials [7] | potency compared with other amylin analogues and human amylin [8]
CC[C@H](C)[C@@H](C(=O)N[C@@H](CC(C)C)C(=O)N[C@@H](CO)C(=O)N[C@@H](CO)C(=O)N[C@H](C(=O)N[C@@H](CCC(=O)O)C(=O)N[C@H](C(=O)NCC(=O)N[C@@H](CO)C(=O)N[C@@H](CC(N)=O)C(=O)N[C@H](C(=O)N1C[C@H](O)C[C@H]1C(N)=O)[C@@H](C)O)C(C)C)[C@@H](C)O)N(C)C(=O)[C@H](C)NC(=O)CN(C)C(=O)[C@H](Cc1ccccc1)NC(=O)[C@H](CO)NC(=O)[C@H](CO)NC(=O)[C@H](CCCNC(=N)N)NC(=O)[C@H](CCC(N)=O)NC(=O)[C@H](CC(C)C)NC(=O)[C@H](Cc1ccccc1)NC(=O)[C@H](CCCC(=O)O)NC(=O)[C@H](C)NC(=O)[C@H](CC(C)C)NC(=O)[C@H](CCCNC(=N)N)NC(=O)[C@H](CCC(=O)O)NC(=O)[C@@H](NC(=O)[C@H](C)NC(=O)[C@@H]1CCCNC(=O)C[C@H](NC(=O)[C@H](CCCNC(=N)N)NC(=O)CC[C@H](NC(=O)CCCCCCCCCCCCCCCCCCC(=O)O)C(=O)O)C(=O)NCC(=O)N[C@@H]([C@@H](C)O)C(=O)N[C@@H](C)C(=O)N[C@@H]([C@@H](C)O)C(=O)N1)[C@@H](C)O [Compound 20, [19CD]-isoGlu-RD()GTAT-Orn()-ATERLA-Aad-FLQRSSF-Gly(Me)-A-Ile(Me)-LSSTEVGSNT-Hyp-NH2] ({C20 diacid-γGlu}-RDGTAT[Orn]ATERLA[Aad]FLQRSSF[Sar]A[NMeI]LSSTEVGSNT[Hyp]-NH2; lactam 2-7) | FD | FND | FND | 1.0 | 1.3 | <1 | 2.0 | 3.7 | 31.1 | 0.003 | 0.009 | 7.8 | 49 |  | 
CC[C@H](C)[C@H](NC(=O)[C@@H]1CCCN1C(=O)CNC(=O)[C@H](Cc1ccccc1)NC(=O)[C@H](CC(N)=O)NC(=O)[C@H](CC(N)=O)NC(=O)[C@H](CO)NC(=O)[C@H](CO)NC(=O)[C@H](Cc1c[nH]cn1)NC(=O)[C@@H](NC(=O)[C@H](CC(C)C)NC(=O)[C@H](Cc1ccccc1)NC(=O)[C@H](CC(N)=O)NC(=O)[C@H](C)NC(=O)[C@H](CC(C)C)NC(=O)[C@H](CCCNC(=N)N)NC(=O)[C@H](CCC(N)=O)NC(=O)[C@@H](NC(=O)[C@H](C)NC(=O)[C@@H]1CSSC[C@H](NC(=O)[C@@H](N)CCCCN)C(=O)N[C@@H](CC(N)=O)C(=O)N[C@@H]([C@@H](C)O)C(=O)N[C@@H](C)C(=O)N[C@@H]([C@@H](C)O)C(=O)N1)[C@@H](C)O)C(C)C)C(=O)N[C@@H](CC(C)C)C(=O)N1CCC[C@H]1C(=O)N1CCC[C@H]1C(=O)N[C@H](C(=O)N[C@@H](CC(N)=O)C(=O)N[C@H](C(=O)NCC(=O)N[C@@H](CO)C(=O)N[C@@H](CC(N)=O)C(=O)N[C@H](C(=O)N[C@@H](Cc1ccc(O)cc1)C(N)=O)[C@@H](C)O)C(C)C)[C@@H](C)O [pramlintide] |  |  |  |  |  |  |  |  |  |  |  |  |  | reduce body weight or reduce weight gain | 
^2,7cyclo-[2Asp,7Lys]-h-amylin |  |  |  |  |  |  |  |  |  |  |  |  |  |  | considerably lower potency

More lines, main results first:

Fibrillation (in buffer) pH4 acetate [1] | Fibrillation (in buffer) pH7 histidine [1] | Fibrillation (in buffer) pH7 phosphate [1] | % degradation after 72 h at 40° C. pH4 acetate [2] [%] | % degradation after 72 h at 40° C. pH6 phosphate [2] [%] | % degradation after 14 days at 40° C. pH6 phosphate [2] [%] | % degradation after 72 h at 40° C. pH7 phosphate [2] [%] | % degradation after 14 days at 40° C. pH7 phosphate [2] [%] | half-life [3] [h] | EC50 [4] [nM] | EC50 [5] [nM] | Compound | Body weight reduction in % at 48 h [6] [%] | Food intake reduction in % at 48 h [6] [%] | effect on body weight in human trials [7] | potency compared with other amylin analogues and human amylin [8]
FND | FND | FD | <1 | 3.2 | 1.0 | 1.2 |  | 21.3 | 0.035 | 0.081 | CC[C@H](C)[C@@H](C(=O)N[C@@H](CC(C)C)C(=O)N[C@@H](CO)C(=O)N[C@@H](CO)C(=O)N[C@H](C(=O)N[C@@H](CCC(=O)O)C(=O)N[C@H](C(=O)NCC(=O)N[C@@H](CO)C(=O)N[C@@H](CC(N)=O)C(=O)N[C@H](C(=O)N1C[C@H](O)C[C@H]1C(N)=O)[C@@H](C)O)C(C)C)[C@@H](C)O)N(C)C(=O)[C@H](C)NC(=O)CN(C)C(=O)[C@H](Cc1ccccc1)NC(=O)[C@H](CO)NC(=O)[C@H](CO)NC(=O)[C@H](CCCNC(=N)N)NC(=O)[C@H](CCC(N)=O)NC(=O)[C@H](CC(C)C)NC(=O)[C@H](Cc1ccccc1)NC(=O)[C@H](Cc1c[nH]cn1)NC(=O)[C@H](C)NC(=O)[C@H](CC(C)C)NC(=O)[C@H](CCCNC(=N)N)NC(=O)[C@H](CCC(=O)O)NC(=O)[C@@H](NC(=O)[C@H](C)NC(=O)[C@@H]1CCCNC(=O)C[C@H](NC(=O)[C@H](CCCNC(=N)N)NC(=O)CC[C@H](NC(=O)CCCCCCCCCCCCCCCCCCC(=O)O)C(=O)O)C(=O)NCC(=O)N[C@@H]([C@@H](C)O)C(=O)N[C@@H](C)C(=O)N[C@@H]([C@@H](C)O)C(=O)N1)[C@@H](C)O [Compound 3, [19CD]-isoGlu-RD()GTAT-Orn()-ATERLAHFLQRSSF-Gly(Me)-A-Ile(Me)-LSSTEVGSNT-Hyp-NH2] ({C20 diacid-γGlu}-RDGTAT[Orn]ATERLAHFLQRSSF[Sar]A[NMeI]LSSTEVGSNT[Hyp]-NH2; lactam 2-7) | 5.6 | 34 |  | 
FD | FND | FND | <1 | <1 |  | <1 | <1 | 31.8 | 0.06 | 0.114 | CC[C@H](C)[C@@H](C(=O)N[C@@H](CC(C)C)C(=O)N[C@@H](CO)C(=O)N[C@@H](CO)C(=O)N[C@H](C(=O)N[C@@H](CCC(=O)O)C(=O)N[C@H](C(=O)NCC(=O)N[C@@H](CO)C(=O)N[C@@H](CC(N)=O)C(=O)N[C@H](C(=O)N1C[C@H](O)C[C@H]1C(N)=O)[C@@H](C)O)C(C)C)[C@@H](C)O)N(C)C(=O)[C@H](C)NC(=O)CN(C)C(=O)[C@H](Cc1ccccc1)NC(=O)[C@@H](NC(=O)[C@@H](NC(=O)[C@H](CCCNC(=N)N)NC(=O)[C@H](CCC(N)=O)NC(=O)[C@H](CC(C)C)NC(=O)[C@H](Cc1ccccc1)NC(=O)[C@H](CCCC(=O)O)NC(=O)[C@H](C)NC(=O)[C@H](CC(C)C)NC(=O)[C@H](CCCNC(=N)N)NC(=O)[C@H](CCC(=O)O)NC(=O)[C@@H](NC(=O)[C@H](C)NC(=O)[C@@H]1CCCCNC(=O)C[C@H](NC(=O)[C@H](CCCNC(=N)N)NC(=O)CC[C@H](NC(=O)CCCCCCCCCCCCCCCCCCC(=O)O)C(=O)O)C(=O)NCC(=O)N[C@@H]([C@@H](C)O)C(=O)N[C@@H](C)C(=O)N[C@@H]([C@@H](C)O)C(=O)N1)[C@@H](C)O)[C@@H](C)O)[C@@H](C)O [Compound 38, [19CD]-isoGlu-RD()GTATK()ATERLA-Aad-FLQRTTF-Gly(Me)-A-Ile(Me)-LSSTEVGSNT-Hyp-NH2] ({C20 diacid-γGlu}-RDGTATKATERLA[Aad]FLQRTTF[Sar]A[NMeI]LSSTEVGSNT[Hyp]-NH2; lactam 2-7) | 8.2 | 43 |  | 
